Data reported in ChEMBL document CHEMBL4665869, “New thiazolopyrimidine as anticancer agents: Synthesis, biological evaluation, DNA binding, molecular modeling and ADMET study” (Bioorg Med Chem Lett, 2020).
≈ marks a conversion by molar mass, not a printed value.

What was measured:
KM12 = assay: Growth inhibition of human KM12 cells at 10 uM relative to control; type: functional; conditions: read-out: GI
LOX IMVI = assay: Growth inhibition of human LOX IMVI cells at 10 uM relative to control; type: functional; conditions: read-out: GI
Malme-3M = assay: Growth inhibition of human Malme-3M cells at 10 uM relative to control; type: functional; conditions: read-out: GI
DU-145 = assay: Growth inhibition of human DU-145 cells at 10 uM relative to control; type: functional; conditions: read-out: GI
RPMI-8226 = assay: Growth inhibition of human RPMI-8226 cells at 10 uM relative to control; type: functional; conditions: read-out: GI
COLO 205 = assay: Growth inhibition of human COLO 205 cells at 10 uM relative to control; type: functional; conditions: read-out: GI
A549 = assay: Growth inhibition of human A549 cells at 10 uM relative to control; type: functional; conditions: read-out: GI
HOP-92 = assay: Growth inhibition of human HOP-92 cells at 10 uM relative to control; type: functional; conditions: read-out: GI
CAKI-1 = assay: Growth inhibition of human CAKI-1 cells at 10 uM relative to control; type: functional; conditions: read-out: GI
SF-268 = assay: Growth inhibition of human SF-268 cells at 10 uM relative to control; type: functional; conditions: read-out: GI
MDA-MB-468 = assay: Growth inhibition of human MDA-MB-468 cells at 10 uM relative to control; type: functional; conditions: read-out: GI
SF-295 = assay: Growth inhibition of human SF-295 cells at 10 uM relative to control; type: functional; conditions: read-out: GI
OVCAR-8 = assay: Growth inhibition of human OVCAR-8 cells at 10 uM relative to control; type: functional; conditions: read-out: GI
SF-539 = assay: Growth inhibition of human SF-539 cells at 10 uM relative to control; type: functional; conditions: read-out: GI
SK-MEL-2 = assay: Growth inhibition of human SK-MEL-2 cells at 10 uM relative to control; type: functional; conditions: read-out: GI
HCT-116 = assay: Growth inhibition of human HCT-116 cells at 10 uM relative to control; type: functional; conditions: read-out: GI
786-0 = assay: Growth inhibition of human 786-0 cells at 10 uM relative to control; type: functional; conditions: read-out: GI
ACHN = assay: Growth inhibition of human ACHN cells at 10 uM relative to control; type: functional; conditions: read-out: GI
NCI/ADR-RES = assay: Growth inhibition of human NCI/ADR-RES cells at 10 uM relative to control; type: functional; conditions: read-out: GI
U-251 = assay: Growth inhibition of human U-251 cells at 10 uM relative to control; type: functional; conditions: read-out: GI
SNB-19 = assay: Growth inhibition of human SNB-19 cells at 10 uM relative to control; type: functional; conditions: read-out: GI
NCI-H322M = assay: Growth inhibition of human NCI-H322M cells at 10 uM relative to control; type: functional; conditions: read-out: GI
UACC-62 = assay: Growth inhibition of human UACC-62 cells at 10 uM relative to control; type: functional; conditions: read-out: GI
CCRF-CEM = assay: Growth inhibition of human CCRF-CEM cells at 10 uM relative to control; type: functional; conditions: read-out: GI
T47D = assay: Growth inhibition of human T47D cells at 10 uM relative to control; type: functional; conditions: read-out: GI
TK-10 = assay: Growth inhibition of human TK-10 cells at 10 uM relative to control; type: functional; conditions: read-out: GI
SK-OV-3 = assay: Growth inhibition of human SK-OV-3 cells at 10 uM relative to control; type: functional; conditions: read-out: GI
HL-60(TB) = assay: Growth inhibition of human HL-60(TB) cells at 10 uM relative to control; type: functional; conditions: read-out: GI
HT-29 = assay: Growth inhibition of human HT-29 cells at 10 uM relative to control; type: functional; conditions: read-out: GI
UACC-257 = assay: Growth inhibition of human UACC-257 cells at 10 uM relative to control; type: functional; conditions: read-out: GI
HCT-15 = assay: Growth inhibition of human HCT-15 cells at 10 uM relative to control; type: functional; conditions: read-out: GI
SR = assay: Growth inhibition of human SR cells at 10 uM relative to control; type: functional; conditions: read-out: GI
UO-31 = assay: Growth inhibition of human UO-31 cells at 10 uM relative to control; type: functional; conditions: read-out: GI
M14 = assay: Growth inhibition of human M14 cells at 10 uM relative to control; type: functional; conditions: read-out: GI
OVCAR-4 = assay: Growth inhibition of human OVCAR-4 cells at 10 uM relative to control; type: functional; conditions: read-out: GI
MCF7 = assay: Growth inhibition of human MCF7 cells at 10 uM relative to control; type: functional; conditions: read-out: GI
SN12C = assay: Growth inhibition of human SN12C cells at 10 uM relative to control; type: functional; conditions: read-out: GI
DNA = assay: Displacement of methyl green from DNA (unknown origin) assessed as DNA intercalation after 24 hrs by colorimetric assay; type: nucleic-acid assay
A498 = assay: Growth inhibition of human A498 cells at 10 uM relative to control; type: functional; conditions: read-out: GI
PC-3 = assay: Growth inhibition of human PC-3 cells at 10 uM relative to control; type: functional; conditions: read-out: GI
HCC 2998 = assay: Growth inhibition of human HCC 2998 cells at 10 uM relative to control; type: functional; conditions: read-out: GI
IGROV-1 = assay: Growth inhibition of human IGROV-1 cells at 10 uM relative to control; type: functional; conditions: read-out: GI
NCI-H226 = assay: Growth inhibition of human NCI-H226 cells at 10 uM relative to control; type: functional; conditions: read-out: GI
NCI-H522 = assay: Growth inhibition of human NCI-H522 cells at 10 uM relative to control; type: functional; conditions: read-out: GI
NCI-H460 = assay: Growth inhibition of human NCI-H460 cells at 10 uM relative to control; type: functional; conditions: read-out: GI
SK-MEL-5 = assay: Growth inhibition of human SK-MEL-5 cells at 10 uM relative to control; type: functional; conditions: read-out: GI
SW-620 = assay: Growth inhibition of human SW-620 cells at 10 uM relative to control; type: functional; conditions: read-out: GI
HOP-62 = assay: Growth inhibition of human HOP-62 cells at 10 uM relative to control; type: functional; conditions: read-out: GI
SK-MEL-28 = assay: Growth inhibition of human SK-MEL-28 cells at 10 uM relative to control; type: functional; conditions: read-out: GI
MDA-MB-231 = assay: Growth inhibition of human MDA-MB-231 cells at 10 uM relative to control; type: functional; conditions: read-out: GI
Hs-578T = assay: Growth inhibition of human Hs-578T cells at 10 uM relative to control; type: functional; conditions: read-out: GI
BT-549 = assay: Growth inhibition of human BT-549 cells at 10 uM relative to control; type: functional; conditions: read-out: GI
SNB-75 = assay: Growth inhibition of human SNB-75 cells at 10 uM relative to control; type: functional; conditions: read-out: GI
NCI-H23 = assay: Growth inhibition of human NCI-H23 cells at 10 uM relative to control; type: functional; conditions: read-out: GI
OVCAR-5 = assay: Growth inhibition of human OVCAR-5 cells at 10 uM relative to control; type: functional; conditions: read-out: GI
RXF 393 = assay: Growth inhibition of human RXF 393 cells at 10 uM relative to control; type: functional; conditions: read-out: GI
K562 = assay: Growth inhibition of human K562 cells at 10 uM relative to control; type: functional; conditions: read-out: GI
MOLT-4 = assay: Growth inhibition of human MOLT-4 cells at 10 uM relative to control; type: functional; conditions: read-out: GI
MDA-MB-435 = assay: Growth inhibition of human MDA-MB-435 cells at 10 uM relative to control; type: functional; conditions: read-out: GI

## CC1=CN2C(=NC(/C=C/c3ccc(C)cc3)=CC2c2ccc(C)cc2)S1 (centres undefined)
KM12
  inhibition of growth at 10 µM: < 10%
LOX IMVI
  inhibition of growth at 10 µM: < 10%
Malme-3M
  inhibition of growth at 10 µM: < 10%
DU-145
  inhibition of growth at 10 µM: < 10%
RPMI-8226
  inhibition of growth at 10 µM: < 10%
COLO 205
  inhibition of growth at 10 µM: < 10%
A549
  inhibition of growth at 10 µM: < 10%
HOP-92
  inhibition of growth at 10 µM: < 10%
CAKI-1
  inhibition of growth at 10 µM: < 10%
SF-268
  inhibition of growth at 10 µM: < 10%
MDA-MB-468
  inhibition of growth at 10 µM: 11.3%
SF-295
  inhibition of growth at 10 µM: < 10%
OVCAR-8
  inhibition of growth at 10 µM: < 10%
SF-539
  inhibition of growth at 10 µM: < 10%
SK-MEL-2
  inhibition of growth at 10 µM: < 10%
HCT-116
  inhibition of growth at 10 µM: < 10%
786-0
  inhibition of growth at 10 µM: < 10%
ACHN
  inhibition of growth at 10 µM: < 10%
NCI/ADR-RES
  inhibition of growth at 10 µM: < 10%
U-251
  inhibition of growth at 10 µM: < 10%
SNB-19
  inhibition of growth at 10 µM: < 10%
NCI-H322M
  inhibition of growth at 10 µM: < 10%
UACC-62
  inhibition of growth at 10 µM: < 10%
CCRF-CEM
  inhibition of growth at 10 µM: < 10%
T47D
  inhibition of growth at 10 µM: < 10%
TK-10
  inhibition of growth at 10 µM: < 10%
SK-OV-3
  inhibition of growth at 10 µM: < 10%
HL-60(TB)
  inhibition of growth at 10 µM: < 10%
HT-29
  inhibition of growth at 10 µM: < 10%
UACC-257
  inhibition of growth at 10 µM: < 10%
HCT-15
  inhibition of growth at 10 µM: < 10%
SR
  inhibition of growth at 10 µM: < 10%
UO-31
  inhibition of growth at 10 µM: 19.1%
M14
  inhibition of growth at 10 µM: < 10%
OVCAR-4
  inhibition of growth at 10 µM: < 10%
MCF7
  inhibition of growth at 10 µM: < 10%
SN12C
  inhibition of growth at 10 µM: < 10%
DNA
  IC50: 87.57 µg/mL (≈ 244 µM)
A498
  inhibition of growth at 10 µM: < 10%
PC-3
  inhibition of growth at 10 µM: < 10%
HCC 2998
  inhibition of growth at 10 µM: < 10%
IGROV-1
  inhibition of growth at 10 µM: < 10%
NCI-H226
  inhibition of growth at 10 µM: < 10%
NCI-H522
  inhibition of growth at 10 µM: 10.9%
NCI-H460
  inhibition of growth at 10 µM: < 10%
SK-MEL-5
  inhibition of growth at 10 µM: < 10%
SW-620
  inhibition of growth at 10 µM: < 10%
HOP-62
  inhibition of growth at 10 µM: < 10%
SK-MEL-28
  inhibition of growth at 10 µM: < 10%
MDA-MB-231
  inhibition of growth at 10 µM: < 10%
Hs-578T
  inhibition of growth at 10 µM: < 10%
BT-549
  inhibition of growth at 10 µM: < 10%
SNB-75
  inhibition of growth at 10 µM: 13.7%
NCI-H23
  inhibition of growth at 10 µM: < 10%
OVCAR-5
  inhibition of growth at 10 µM: < 10%
RXF 393
  inhibition of growth at 10 µM: < 10%
K562
  inhibition of growth at 10 µM: < 10%
MOLT-4
  inhibition of growth at 10 µM: 12.6%
MDA-MB-435
  inhibition of growth at 10 µM: < 10%
